According to the NIST ThermoML archive (doi:10.1021/acs.jced.9b00507):
± gives the expanded uncertainty stated by the source.

Details: 100 kPa, Liquid; for viscosity: Concentric cylinders viscometry; for mass density: Vibrating tube method

CCCCCCn1cc[n+](C)c1.O=[N+]([O-])[O-] [1-hexyl-3-methylimidazolium nitrate]
viscosity (293.15 K): 804.17 ± 70 mPa·s | mass density (293.15 K): 1120.3 ± 1.4 kg/m3 | viscosity (298.15 K): 545.25 ± 47 mPa·s | mass density (298.15 K): 1117.5 ± 1.4 kg/m3 | viscosity (303.15 K): 369.14 ± 31 mPa·s | mass density (303.15 K): 1114.3 ± 1.4 kg/m3 | viscosity (308.15 K): 257.59 ± 21 mPa·s | mass density (308.15 K): 1111.1 ± 1.4 kg/m3 | viscosity (313.15 K): 185.67 ± 15 mPa·s | mass density (313.15 K): 1107.8 ± 1.4 kg/m3 | viscosity (318.15 K): 140.18 ± 11 mPa·s | mass density (318.15 K): 1104.7 ± 1.4 kg/m3 | viscosity (323.15 K): 110.94 ± 9 mPa·s | mass density (323.15 K): 1101.6 ± 1.4 kg/m3
